Results reported in patent publication US20150259300A1, “4-(ORTHO)-FLUOROPHENYL-5-FLUOROPYRIMIDIN-2-YL AMINES CONTAINING A SULFONE GROUP” (BAYER PHARMA AKTIENGESELLSCHAFT, priority 2012, published 2015).

Tests used:
CDK9/CycT1 [1] = molecular target: T1, CDK9/CycT1 (Homo sapiens, UniProt P50750); assay: CDK9/CycT1 kinase assay (TR-FRET, Method 1a); assay type: biochemical; conditions: for IC50: Method 1a, 10 μM ATP; for Selectivity CDK9/CDK2: derived from Methods 1a. and 2.
T1 construct: Recombinant full-length His-tagged human CDK9 and CycT1; His; purchased Invitrogen PV4131; host or cells: insect cells
Source text: 1a. CDK9/CyeT1 Kinase Assay:
CDK9/CycT1-inhibitory activity of compounds of the present invention was quantified employing the CDK9/CycT1 TR-FRET assay as described in the following paragraphs:
Recombinant full-length His-tagged human CDK9 and CycT1, expressed in insect cells and purified by Ni-NTA affinity chromatography, were purchased from Invitrogen (Cat. No PV4131). As substrate for the kinase reaction biotinylated peptide biotin-Ttds-YISPLKSPYKISEG (C-terminus in amid form) was used which can be purchased e.g. form the company JERINI Peptide Technologies (Berlin, Germany). For the assay 50 nl of a 100 fold concentrated solution of the test compound in DMSO was pipetted into a black low volume 384 well microtiter plate (Greiner Bio-One, Frickenhausen, Germany), 2 μl of a solution of CDK9/CycT1 in aqueous assay buffer [50 mM Tris/HCl pH 8.0, 10 mM MgCl2, 1.0 mM dithiothreitol, 0.1 mM sodium ortho-vanadate, 0.01% (v/v) Nonidet-P40 (Sigma)] were added and the mixture was incubated for 15 min at 22° C. to allow pre-binding of the test compounds to the enzyme before the start of the kinase reaction. Then the kinase reaction was started by the addition of 3 μl of a solution of adenosine-tri-phosphate (ATP, 16.7 μM=>final conc. in the 5 μl assay volume is 10 μM) and substrate (1.67 μM=>final conc. in the 5 μl assay volume is 1 μM) in assay buffer and the resulting mixture was incubated for a reaction time of 25 min at 22° C. The concentration of CDK9/CycT1 was adjusted depending of the activity of the enzyme lot and was chosen appropriate to have the assay in the linear range, typical concentrations were in the range of 1 μg/ml. The reaction was stopped by the addition of 5 μl of a solution of TR-FRET detection reagents (0.2 μM streptavidine-XL665 [Cisbio Bioassays, Codolet, France] and 1 nM anti-RB(pSer807/pSer811)-antibody from BD Pharmingen [#558389] and 1.2 nM LANCE EU-W1024 labeled anti-mouse IgG antibody [Perkin-Elmer, product no. AD0077]) in an aqueous EDTA-solution (100 mM EDTA, 0.2% (w/v) bovine serum albumin in 100 mM HEPES/NaOH pH 7.0).
(§1) The resulting mixture was incubated 1 h at 22° C. to allow the formation of complex between the phosphorylated biotinylated peptide and the detection reagents. Subsequently the amount of phosphorylated substrate was evaluated by measurement of the resonance energy transfer from the Eu-chelate to the streptavidine-XL. Therefore, the fluorescence emissions at 620 nm and 665 nm after excitation at 350 nm was measured in a HTRF reader, e.g. a Rubystar (BMG Labtechnologies, Offenburg, Germany) or a Viewlux (Perkin-Elmer). The ratio of the emissions at 665 nm and at […] was taken as the measure for the amount of phosphorylated substrate. The data were normalised (enzyme reaction without inhibitor=0% inhibition, all other assay components but no enzyme=100% inhibition).

CDK2/CycE = molecular target: T2, CDK2/CycE (Homo sapiens, UniProt P24941); assay: CDK2/CycE kinase assay (TR-FRET, Method 2); assay type: biochemical; conditions: Method 2, 10 μM ATP
T2 construct: GST; purchased ProQinase GmbH (Freiburg, Germany); host or cells: insect cells (Sf9)
Source text: 2. CDK2/CycE Kinase Assay:
CDK2/CycE -inhibitory activity of compounds of the present invention was quantified employing the CDK2/CycE TR-FRET assay as described in the following paragraphs:
Recombinant fusion proteins of GST and human CDK2 and of GST and human CycE, expressed in insect cells (Sf9) and purified by Glutathion-Sepharose affinity chromatography, were purchased from ProQinase GmbH (Freiburg, Germany). As substrate for the kinase reaction biotinylated peptide biotin-Ttds-YISPLKSPYKISEG (C-terminus in amid form) was used which can be purchased e.g. form the company JERINI Peptide Technologies (Berlin, Germany).
(§2) For the assay 50 nl of a 100 fold concentrated solution of the test compound in DMSO was pipetted into a black low volume 384 well microtiter plate (Greiner Bio-One, Frickenhausen, Germany), 2 μl of a solution of CDK2/CycE in aqueous assay buffer [50 mM Tris/HCl pH 8.0, 10 mM MgCl2, 1.0 mM dithiothreitol, 0.1 mM sodium ortho-vanadate, 0.01% (v/v) Nonidet-P40 (Sigma)] were added and the mixture was incubated for […] at 22° C. to allow pre-binding of the test compounds to the enzyme before the start of the kinase reaction. Then the kinase reaction was started by the addition of 3 μl of a solution of adenosine-tri-phosphate (ATP, 16.7 μM=>final conc. in the 5 μl assay volume is 10 μM) and substrate (1.25 μM=>final conc. in the 5 μl assay volume is 0.75 μM) in assay buffer and the resulting mixture was incubated for a reaction time of […] at 22° C. The concentration of CDK2/CycE was adjusted depending of the activity of the enzyme lot and was chosen appropriate to have the assay in the linear range, typical concentrations were in the range of 130 ng/ml. The reaction was stopped by the addition of 5 μl of a solution of TR-FRET detection reagents (0.2 μM streptavidine-XL665 [Cisbio Bioassays, Codolet, France] and 1 nM anti-RB(pSer807/pSer811)-antibody from BD Pharmingen [#558389] and 1.2 nM LANCE EU-W1024 labeled anti-mouse IgG antibody [Perkin-Elmer, product no. AD0077]) in an aqueous EDTA-solution (100 mM EDTA, 0.2% (w/v) bovine serum albumin in 100 mM HEPES/NaOH pH 7.0).
as §1, with “TR-FRET” for “HTRF”

HeLa cells = assay: Proliferation assay (crystal violet), HeLa; assay type: cell-based; conditions: Homo sapiens, 96 h, 4 days, read-out: Inhibition of HeLa cell proliferation IC50
Description: Cultivated tumour cells (HeLa, human cervical tumour cells, ATCC CCL-2; NCI-H460, human non-small cell lung carcinoma cells, ATCC HTB-177; A2780, human ovarian carcinoma cells, ECACC #93112519; DU 145, hormone-independent human prostate carcinoma cells, ATCC HTB-81; HeLa-MaTu-ADR, multidrug-resistant human cervical carcinoma cells, EPO-GmbH Berlin; Caco-2, human colorectal carcinoma cells, ATCC HTB-37; B 16F10, mouse melanoma cells, ATCC CRL-6475) were plated at a density of 5,000 cells/well (DU145, HeLa-MaTu-ADR), 3,000 cells/well (NCI-H460, HeLa), 2,500 cells/well (A2780), 1,500 cells/well (Caco-2), or 1,000 cells/well (B16F10) in a 96-well multititer plate in 200 μL of their respective growth medium supplemented 10% fetal calf serum. After 24 hours, the cells of one plate (zero-point plate) were stained with crystal violet (see below), while the medium of the other plates was replaced by fresh culture medium (200 to which the test substances were added in various concentrations (0 μM, as well as in the range of 0.001-10 μM; the final concentration of the solvent dimethyl sulfoxide was 0.5%). The cells were incubated for 4 days in the presence of test substances. Cell proliferation was determined by staining the cells with crystal violet: the cells were fixed by adding 20 μl/measuring point of an 11% glutaric aldehyde solution for 15 minutes at room temperature. After three washing cycles of the fixed cells with water, the plates were dried at room temperature. The cells were stained by adding 100 μl/measuring point of a 0.1% crystal violet solution (pH 3.0). After three washing cycles of the stained cells with water, the plates were dried at room temperature. The dye was dissolved by adding 100 μl/measuring point of a 10% acetic acid solution. The extinction was determined by photometry at a wavelength of 595 nm. The change of cell number, in percent, was calculated by normalization of the measured values to the extinction values of the zero-point plate (=0%) and the extinction of the untreated (0 μm) cells (=100%). The IC50 values (inhibitory concentration at 50% of maximal effect) were determined by means of a 4 parameter fit.

CDK9/CycT1 [2] = molecular target: T1, CDK9/CycT1; assay: CDK9/CycT1 high ATP kinase assay (TR-FRET, Method 1b); assay type: biochemical; conditions: 2 mM ATP
Description: 1b. CDK9/CyeT1 High ATP Kinase Assay
CDK9/CycT1-inhibitory activity of compounds of the present invention at a high ATP concentration after preincubation of enzyme and test compounds was quantified employing the CDK9/CycT1 TR-FRET assay as described in the following paragraphs.
Recombinant full-length His-tagged human CDK9 and CycT1, expressed in insect cells and purified by Ni-NTA affinity chromatography, were purchase from Invitrogen (Cat. No PV4131). As substrate for the kinase reaction biotinylated peptide biotin-Ttds-YISPLKSPYKISEG (C-terminus in amid form) was used which can be purchased e.g. form the company JERINI peptide technologies (Berlin, Germany).
as §2, with “of CDK9/CycT1” for “of CDK2/CycE”, “(ATP, 3.3 mM=>final conc. in the 5 μl assay volume is 2 mM) and substrate (1.67” for “(ATP, 16.7”, “is 1” for “is 10 μM) and substrate (1.25 μM=>final conc. in the 5 μl assay volume is 0.75”, “of 0.5” for “of 130”, “([…]” for “(0.2 μM”
as §1

T1 sequence (P50750 whole entry): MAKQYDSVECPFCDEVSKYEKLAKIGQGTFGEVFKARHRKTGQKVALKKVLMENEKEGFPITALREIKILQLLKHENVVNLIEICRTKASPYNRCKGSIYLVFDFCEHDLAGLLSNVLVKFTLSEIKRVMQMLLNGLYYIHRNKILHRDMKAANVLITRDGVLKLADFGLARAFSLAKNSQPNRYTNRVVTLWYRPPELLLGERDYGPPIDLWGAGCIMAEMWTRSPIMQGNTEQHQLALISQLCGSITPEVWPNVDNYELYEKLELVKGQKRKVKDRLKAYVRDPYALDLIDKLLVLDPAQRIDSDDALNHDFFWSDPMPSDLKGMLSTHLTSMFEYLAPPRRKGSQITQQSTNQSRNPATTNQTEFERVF
T1 sequence (O60563 whole entry partner): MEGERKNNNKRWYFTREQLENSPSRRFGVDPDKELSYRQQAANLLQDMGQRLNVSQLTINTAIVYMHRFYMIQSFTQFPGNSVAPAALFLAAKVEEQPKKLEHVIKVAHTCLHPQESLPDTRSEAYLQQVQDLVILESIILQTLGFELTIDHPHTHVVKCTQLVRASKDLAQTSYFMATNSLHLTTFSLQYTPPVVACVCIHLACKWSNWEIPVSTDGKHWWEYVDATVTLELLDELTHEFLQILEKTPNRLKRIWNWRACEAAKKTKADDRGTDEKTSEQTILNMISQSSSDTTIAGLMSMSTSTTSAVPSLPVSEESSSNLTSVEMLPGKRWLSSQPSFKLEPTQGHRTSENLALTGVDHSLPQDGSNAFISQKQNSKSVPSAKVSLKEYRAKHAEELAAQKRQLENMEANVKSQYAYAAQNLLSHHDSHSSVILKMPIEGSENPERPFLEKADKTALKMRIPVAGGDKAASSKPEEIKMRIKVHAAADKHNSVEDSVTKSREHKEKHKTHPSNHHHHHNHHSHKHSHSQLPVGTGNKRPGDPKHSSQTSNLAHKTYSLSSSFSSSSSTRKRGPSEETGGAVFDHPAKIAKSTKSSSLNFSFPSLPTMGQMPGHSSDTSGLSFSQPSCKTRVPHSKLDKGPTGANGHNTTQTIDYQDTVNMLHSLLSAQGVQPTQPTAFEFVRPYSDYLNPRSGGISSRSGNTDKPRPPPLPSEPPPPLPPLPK

IC50 (CDK9/CycT1 [1])	Selectivity CDK9/CDK2 (CDK9/CycT1 [1])	IC50 (CDK2/CycE)	IC50 (HeLa cells)	IC50 (CDK9/CycT1 [2])	Compound
20 nM	>1000	> 20000 nM	1050 nM	–	CS(=O)(=O)Cc1cc(Nc2ncc(F)c(-c3ccc(F)cc3F)n2)cc(C(F)(F)F)c1 [Example 1, 4-(2,4-Difluorophenyl)-5-fluoro-N-{3-[(methylsulfonyl)methyl]-5-(trifluoromethyl)phenyl}pyrimidin-2-amine]
40 nM	8.9	360 nM	2240 nM	–	CCS(=O)(=O)Cc1cccc(Nc2ncc(F)c(-c3ccc(F)cc3F)n2)c1 [Example 7, 4-(2,4-Difluorophenyl)-N-{3-[(ethylsulfonyl)methyl]phenyl}-5-fluoropyrimidin-2-amine]
–	–	> 20000 nM	3000 nM	> 20000 nM	CCCS(=O)(=O)Cc1cc(F)cc(Nc2ncc(F)c(-c3cc(F)c(F)cc3F)n2)c1 [Example 14, 5-Fluoro-N-{3-fluoro-5-[(propylsulfonyl)methyl]phenyl}-4-(2,4,5-trifluorophenyl)pyrimidin-2-amine]
